Values joined by “and” are separate entries in the source; they are usually repeats but may differ in a detail not shown here. Equal entries are not always repeated.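 Compound exposure: 48 hours, 5 concentrations, 96-well plates. Here, GI50 denotes the concentration required for 50% inhibition of growth. TGI: concentration producing complete growth inhibition.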 Where a SMILES comes first, the peptide text is derived from it. Bridges are numbered along the chain shown (N, C = ends).

Assay in all cases: NCI tumour cell line growth inhibition, 48 h
In assay [1] the test system is DMS 114 small cell lung.
Assay [2] has as its system LXFL 529 NSCLC.
Assay [3] has as its system RXF-631 renal.
In assay [4] the test system is SNB-78 CNS.
The subject of assay [5] is XF 498 CNS.
Assay [6] has as its system HOP-18 NSCLC.
Assay [7] relates to M19-MEL melanoma.
Assay [8] relates to DMS 273 small cell lung.
The test system of assay [9] is MDA-N.
For assay [10], the system named is P388 leukemia.
The subject of assay [11] is SN12K1 renal.
Assay [12] has as its system P388/ADR leukemia.

For `C=C1CCCC2OC(OC)CCC12` (configuration not stated), the TGI in assay [1], in assay [2], in [3], in assay [4], in assay [5] and in assay [6] was above 100 µM each time. The TGI in [7] and in assay [8] was above 100 µM in each case.
For the compound `C=C(C)C1CC=C(C)C(O)([C@@]2(O)C[C@H](C(=C)C)CC=C2C)C1` (some centres not stated), the TGI in [1] was above 100 µM; in assay [2], above 100 µM; in assay [4] it was above 100 µM; in assay [5], 29.7 µM; in [7], 38.1 µM; in assay [8], 39.9 µM.
Take `O=[N+]([O-])c1cc(C(F)(F)F)cc2n[se]nc12`: the TGI in [1] was found to be 5.92 µM; in assay [2] it was 3.14 µM; in [3], 30.8 µM; in assay [4], 25.9 µM; in assay [5], 5.66 µM; in [6], 8.96 µM. Also, the values for the TGI in [9], in [7] and in assay [8] were 3.85 µM, 10.6 µM and 27.3 µM, respectively.
For `CC1(C)C2=CCCC(=O)[C@@]2(C)CC[C@@H]1O`, the TGI in assay [1], in assay [2], in assay [4], in [5], in [6] and in [7] was above 100 µM throughout. The TGI in [8] was above 100 µM.
With `CC1(C)C=C(N2CCN(C3=CC(C)(C)NC(C)(C)C3)CC2)CC(C)(C)N1`, the TGI in assay [1], in assay [2], in [4], in [5], in assay [6] and in assay [7] was above 100 µM in each case. In assay [8], the TGI is above 100 µM.
For `O=C(O)CC(S)C(=O)O.[Li+].[Sb]` (configuration not stated), in [9], the GI50 was above 100 µM and the TGI is above 100 µM.
For `CC(=O)CCn1[nH]c(=O)c(Cl)c(Cl)c1=O`, the TGI in [1], in assay [2], in [4], in assay [5], in assay [6] and in [7] was above 100 µM throughout. In [8], this compound displayed a TGI above 100 µM.
For `CCc1nc(N)nc(N)c1-c1ccc(N(C)Cc2ccccc2)c([N+](=O)[O-])c1`, the TGI in [9] is 19.1 µM.
`CCCCCCCCCCCCCP(=O)(OC)OC`: the TGI in [1] worked out at 37 µM; in assay [2] it was 33.5 µM; in assay [3], 32.5 µM; in assay [4] it was 35.5 µM; in [5] it was 31.8 µM; in [6], 32.9 µM. For the same compound, the TGI in [7] came out at 33.4 µM; in [8], 33.1 µM.
On to `CC(C)c1ccc(C(c2c(O)c3ccccc3oc2=O)c2c(O)c3ccccc3oc2=O)cc1`, for which, in assay [9], the TGI is 46.8 µM.
`CN(CO)c1nc(N(C)CO)nc(N(C)CO)n1`: the TGI was 23.8 µM in assay [10]; 14.1 µM in assay [11]; 25.3 µM in assay [4]; 12.8 µM in [5]; above 55.6 µM in assay [6]; 69.1 µM in [12]. Moreover, the TGI in [9] is 39.3 µM and 63.4 µM; in [7], 17.2 µM; in assay [8] it was 25.8 µM. For the same compound, the GI50 in [9] was 24.8 µM.
In the case of `COC(=O)/C(=N\Nc1nc(=S)[nH]n1N)C(C#N)c1ccc(Cl)cc1` (configuration not stated), the TGI in [1], in assay [2], in assay [3], in assay [4], in assay [5] and in assay [6] was above 100 µM in each case. The TGI in [7] and in assay [8] was above 100 µM throughout.
On to `CC(=O)OC(C)(C)C[N+](=O)[O-]`, for which the TGI in [1], in assay [2], in [7] and in assay [8] was above 100 µM throughout.
`CCC(C)C1NC(=O)C(CC(C)C)NC(=O)C(C(C)C)NC(=O)C2CSSCC(NC1=O)C(=O)N2` (configuration not stated) (cyclo(CCVLI); disulfide 1-2; configuration not given here): the TGI in [9] was 0.339 µM.
Consider `COC(=O)/C=C(C)/C=C/c1c(C)c(C(C)=O)c(C)n1C`, for which the TGI in assay [2], in [3], in assay [4], in assay [5], in [6] and in assay [7] was above 100 µM each time. Besides, the TGI in [8] was above 100 µM.
Regarding `Cc1ccc(-c2nc3ccccc3c(=O)n2NC2OC(CO)C(O)C(O)C2O)cc1` (configuration not stated), the TGI in assay [1], in assay [2], in [3], in [4], in assay [5] and in assay [6] was above 100 µM in each case. The TGI in [7] and in assay [8] was above 100 µM in each case.
On to `O=C1CS(=O)c2ccccc2N1` (configuration not stated), for which the TGI in assay [2], in assay [3], in assay [4], in assay [5], in assay [6] and in assay [7] was above 100 µM throughout. In assay [8], the TGI is 33.9 µM.
Take `CCN(CC)CCCNc1nccc2c(C)c3[nH]c4ccncc4c(=O)c3cc12`: the TGI in assay [1] came out at 2.91 µM; in assay [2], 11.4 µM; in assay [3] it was 22 µM; in assay [4], 13.7 µM; in assay [5] it was 6.63 µM; in assay [6] it was 18.7 µM. The TGI in assay [8] is 11.8 µM.
Turning to `O=C1C(c2ccccc2)=[N+]([O-])c2cc([N+](=O)[O-])ccc21`, the TGI in assay [1] was 27.3 µM; in assay [5], 39.3 µM; in assay [6], above 100 µM; in [7] it was 32.9 µM.
